The experiment deals with T1, Ano4 (Mus musculus, UniProt Q8C5H1).
T1 construct: full length, 955 residues, C-terminal Myc tag (pcDNA3), transiently expressed in HEK293 cells
T1 sequence (Q8C5H1 1-955): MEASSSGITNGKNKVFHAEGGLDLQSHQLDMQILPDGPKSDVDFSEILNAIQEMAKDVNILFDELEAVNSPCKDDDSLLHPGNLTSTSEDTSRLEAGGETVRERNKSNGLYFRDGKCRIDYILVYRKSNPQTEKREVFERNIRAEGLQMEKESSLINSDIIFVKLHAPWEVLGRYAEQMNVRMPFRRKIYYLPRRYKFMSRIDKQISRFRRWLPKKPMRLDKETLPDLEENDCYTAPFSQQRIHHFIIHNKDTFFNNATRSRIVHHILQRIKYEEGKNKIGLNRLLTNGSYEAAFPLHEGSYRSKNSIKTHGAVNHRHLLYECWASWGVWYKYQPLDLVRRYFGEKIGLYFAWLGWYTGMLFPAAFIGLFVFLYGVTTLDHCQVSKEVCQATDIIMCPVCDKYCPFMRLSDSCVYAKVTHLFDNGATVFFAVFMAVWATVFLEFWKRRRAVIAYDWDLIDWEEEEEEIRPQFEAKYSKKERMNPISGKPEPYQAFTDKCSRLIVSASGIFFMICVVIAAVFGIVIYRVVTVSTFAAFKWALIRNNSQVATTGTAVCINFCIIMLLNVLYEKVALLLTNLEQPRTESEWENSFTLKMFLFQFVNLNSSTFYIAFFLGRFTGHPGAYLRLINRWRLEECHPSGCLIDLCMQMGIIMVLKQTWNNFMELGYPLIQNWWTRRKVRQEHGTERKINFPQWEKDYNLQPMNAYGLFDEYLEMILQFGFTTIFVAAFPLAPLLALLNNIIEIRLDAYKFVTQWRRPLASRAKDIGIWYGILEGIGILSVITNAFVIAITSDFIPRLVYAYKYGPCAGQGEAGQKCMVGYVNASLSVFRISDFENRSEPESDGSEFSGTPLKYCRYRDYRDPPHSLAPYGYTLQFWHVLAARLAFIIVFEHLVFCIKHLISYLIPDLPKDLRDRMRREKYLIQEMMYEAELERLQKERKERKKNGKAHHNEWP
In words: whole-cell patch clamp, block of ionomycin-activated current. The following applies: 100 uM niflumic acid; extracellular Ringer with 1 uM ionomycin, pH 7.2, room temperature; channel blocker. The experiment is classed as cell-based. Background: The patch-clamp technique gives a direct electrical read-out from membranes.

The structures appear in SMILES notation.

Take `O=C(O)c1cccnc1Nc1cccc(C(F)(F)F)c1` [niflumic acid]: the “whole-cell patch clamp, block of ionomycin-activated current” value is recorded as “The Ano4-dependent current was blocked by the application of the fenamate niflumic acid”.

Values taken from publication PMC6381168, “Anoctamin-4 is a bona fide Ca^2+-dependent non-selective cation channel” (Scientific Reports, 2019).
